Reference: PubChem BioAssay AID342 (DTP/NCI, 2004)
Several values for one entry are separate records, joined by “and”; a condition that tells them apart may be missing. Identical values can stand only once.

Tested on: Swiss mice, Sarcoma 180 sc, mean tumor weight T/C
Experiment: NCI In Vivo Anticancer Drug Screen. Data for tumor model Sarcoma 180 (subcutaneous) in Swiss mice
Settings: endpoint: mean tumor weight, higher = larger tumour
In short: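 Tumor-bearing mice, transplantable tumor; readout survival or tumor size; result = T/C, treated vs vehicle control.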

[1] = dose: 125.0 mg/kg/injection, schedule: Q01DX007 (ip), vehicle: saline
[2] = dose: 225.0 mg/kg/injection, schedule: Q01DX007 (ip), vehicle: saline
[3] = dose: 250.0 mg/kg/injection, schedule: Q01DX007 (ip), vehicle: saline
[4] = dose: 62.0 mg/kg/injection, schedule: Q01DX007 (ip), vehicle: carboxymethylcellulose (CMC)
[5] = dose: 62.5 mg/kg/injection, schedule: Q#A X014 (ip), vehicle: carboxymethylcellulose (CMC)

CC[C@]1(O)C[C@H]2CN(CCc3c([nH]c4ccccc34)[C@@](C(=O)OC)(c3cc4c(cc3OC)N(C=O)[C@H]3[C@@](O)(C(=O)OC)[C@H](OC(C)=O)[C@]5(CC)C=CCN6CC[C@]43[C@@H]65)C2)C1
T/C (dose: 0.12 mg/kg/injection, schedule: Q01DX007 (ip), vehicle: saline): 57 % of control

C[C@]12CC[C@@H]3c4ccc(O)cc4CC[C@H]3[C@@H]1C[C@H](O)C2
T/C (dose: 0.25 mg/kg/injection, schedule: Q#A X014 (sc), vehicle: steriod suspending solution): 120 % of control
T/C (dose: 0.5 mg/kg/injection, schedule: Q01DX007 (sc), vehicle: steriod suspending solution): 110 % of control
T/C (dose: 1.25 mg/kg/injection, schedule: Q01DX007 (sc), vehicle: steriod suspending solution): 60 % of control
T/C (dose: 1.25 mg/kg/injection, schedule: Q#A X014 (sc), vehicle: steriod suspending solution): 99 % of control
T/C (dose: 2.5 mg/kg/injection, schedule: Q#A X014 (sc), vehicle: steriod suspending solution): 58 % of control
T/C (dose: 10.0 mg/kg/injection, schedule: Q#A X014 (sc), vehicle: steriod suspending solution): 73 % of control

CNC=O
T/C (dose: 19.87 mg/kg/injection, schedule: Q#A X014 (ip), vehicle: carboxymethylcellulose (CMC)): 107 % of control
T/C (dose: 39.75 mg/kg/injection, schedule: Q#A X014 (ip), vehicle: carboxymethylcellulose (CMC)): 67 % of control
T/C (dose: 79.5 mg/kg/injection, schedule: Q#A X014 (ip), vehicle: carboxymethylcellulose (CMC)): 23 % of control
T/C (dose: 100.0 mg/kg/injection, schedule: Q#A X014 (ip), vehicle: saline): 20 % of control
T/C (dose: 120.0 mg/kg/injection, schedule: Q01DX007 (ip), vehicle: carboxymethylcellulose (CMC)): 19 % of control
T/C [1]: 8 % of control and 12 % of control
T/C (dose: 150.0 mg/kg/injection, schedule: Q01DX007 (ip), vehicle: carboxymethylcellulose (CMC)): 16 % of control
T/C (dose: 150.0 mg/kg/injection, schedule: Q01DX007 (ip), vehicle: saline): 4 % of control and 7 % of control
T/C (dose: 159.0 mg/kg/injection, schedule: Q#A X014 (ip), vehicle: carboxymethylcellulose (CMC)): 8 % of control
T/C (dose: 175.0 mg/kg/injection, schedule: Q01DX007 (ip), vehicle: saline): 1 % of control and 5 % of control
T/C (dose: 200.0 mg/kg/injection, schedule: Q01DX007 (ip), vehicle: carboxymethylcellulose (CMC)): 9 % of control
T/C (dose: 200.0 mg/kg/injection, schedule: Q01DX007 (ip), vehicle: saline): 2 % of control and 3 % of control and 26 % of control
T/C [2]: 1 % of control and 3 % of control
T/C [3]: 1 % of control and 2 % of control
T/C (dose: 275.0 mg/kg/injection, schedule: Q01DX007 (ip), vehicle: saline): 1 % of control
T/C (dose: 325.0 mg/kg/injection, schedule: Q01DX007 (ip), vehicle: saline): 1 % of control
T/C (dose: 400.0 mg/kg/injection, schedule: Q01DX007 (ip), vehicle: saline): 24 % of control

CCN(CC)CCNc1ccc([N+](=O)[O-])c2sc3ccccc3c(=O)c12
T/C (dose: 14.0 mg/kg/injection, schedule: Q#A X014 (ip), vehicle: saline): 71 % of control
T/C (dose: 21.0 mg/kg/injection, schedule: Q#A X014 (ip), vehicle: saline): 65 % of control
T/C (dose: 31.5 mg/kg/injection, schedule: Q#A X014 (ip), vehicle: saline): 65 % of control
T/C (dose: 47.5 mg/kg/injection, schedule: Q#A X014 (ip), vehicle: saline): 34 % of control

CCCOC(=O)C1(N)CCCC1
T/C (dose: 148.0 mg/kg/injection, schedule: Q01DX007 (ip), vehicle: saline): 42 % of control
T/C [2]: 28 % of control

CN1CCc2cc3c(cc2C(=O)Cc2ccc4c(c2C1)OCO4)OCO3
T/C (dose: 1.56 mg/kg/injection, schedule: Q01DX007 (ip), vehicle: saline): 109 % of control
T/C (dose: 3.13 mg/kg/injection, schedule: Q01DX007 (ip), vehicle: saline): 69 % of control
T/C (dose: 6.25 mg/kg/injection, schedule: Q01DX007 (ip), vehicle: saline): 119 % of control
T/C (dose: 25.0 mg/kg/injection, schedule: Q01DX007 (ip), vehicle: saline): 60 % of control
T/C (dose: 50.0 mg/kg/injection, schedule: Q01DX007 (ip), vehicle: saline): 64 % of control
T/C [4]: 79 % of control
T/C (dose: 100.0 mg/kg/injection, schedule: Q01DX007 (ip), vehicle: saline): 80 % of control

CCCCCCC(=O)NC1=C(N2CC2)C(=O)C(NC(=O)CCCCCC)=C(N2CC2)C1=O
T/C (dose: 27.75 mg/kg/injection, schedule: Q#A X014 (ip), vehicle: methylcellulose (MC)): 42 % of control and 50 % of control and 56 % of control
T/C (dose: 41.5 mg/kg/injection, schedule: Q#A X014 (ip), vehicle: methylcellulose (MC)): 38 % of control and 50 % of control and 53 % of control
T/C (dose: 62.5 mg/kg/injection, schedule: Q#A X014 (ip), vehicle: methylcellulose (MC)): 31 % of control

NC(=O)c1[nH]cnc1/N=N/N1CCCC1
T/C [5]: 73 % of control
T/C (dose: 125.0 mg/kg/injection, schedule: Q#A X014 (ip), vehicle: carboxymethylcellulose (CMC)): 107 % of control

Cc1ncc(CO)c(C)c1O
T/C (dose: 25.25 mg/kg/injection, schedule: Q01DX007 (ip), vehicle: carboxymethylcellulose (CMC)): 102 % of control
T/C (dose: 27.5 mg/kg/injection, schedule: Q01DX007 (ip), vehicle: carboxymethylcellulose (CMC)): 77 % of control
T/C (dose: 50.5 mg/kg/injection, schedule: Q01DX007 (ip), vehicle: carboxymethylcellulose (CMC)): 102 % of control
T/C (dose: 55.0 mg/kg/injection, schedule: Q01DX007 (ip), vehicle: carboxymethylcellulose (CMC)): 54 % of control
T/C (dose: 101.0 mg/kg/injection, schedule: Q01DX007 (ip), vehicle: carboxymethylcellulose (CMC)): 84 % of control
T/C (dose: 110.0 mg/kg/injection, schedule: Q01DX007 (ip), vehicle: carboxymethylcellulose (CMC)): 53 % of control
T/C (dose: 202.0 mg/kg/injection, schedule: Q01DX007 (ip), vehicle: carboxymethylcellulose (CMC)): 71 % of control

CCCCn1cnc2c(=S)nc(N)[nH]c21
T/C (dose: 1.65 mg/kg/injection, schedule: Q#A X014 (ip), vehicle: methylcellulose (MC)): 82 % of control
T/C (dose: 2.5 mg/kg/injection, schedule: Q#A X014 (ip), vehicle: methylcellulose (MC)): 93 % of control
T/C (dose: 3.75 mg/kg/injection, schedule: Q#A X014 (ip), vehicle: methylcellulose (MC)): 62 % of control
T/C (dose: 5.5 mg/kg/injection, schedule: Q#A X014 (ip), vehicle: methylcellulose (MC)): 49 % of control

CN(C)c1ccc(/C=C/c2ccnc3ccccc23)cc1
T/C (dose: 15.5 mg/kg/injection, schedule: Q01DX007 (ip), vehicle: water): 82 % of control
T/C [4]: 86 % of control

Clc1ccc(C[P+](c2ccccc2)(c2ccccc2)c2ccccc2)cc1Cl
T/C (dose: 3.6 mg/kg/injection, schedule: Q01DX007 (ip), vehicle: carboxymethylcellulose (CMC)): 66 % of control and 69 % of control
T/C (dose: 5.3 mg/kg/injection, schedule: Q01DX007 (ip), vehicle: carboxymethylcellulose (CMC)): 63 % of control and 71 % of control
T/C (dose: 8.0 mg/kg/injection, schedule: Q01DX007 (ip), vehicle: carboxymethylcellulose (CMC)): 46 % of control

OCCOCC(F)(F)F
T/C [1]: 100 % of control
T/C [3]: 101 % of control
T/C (dose: 500.0 mg/kg/injection, schedule: Q01DX007 (ip), vehicle: saline): 63 % of control

CN1CCCC1c1cccnc1 (stereo unspecified)
T/C (dose: 0.25 mg/kg/injection, schedule: Q01DX007 (ip), vehicle: carboxymethylcellulose (CMC)): 76 % of control
T/C (dose: 0.5 mg/kg/injection, schedule: Q01DX007 (ip), vehicle: carboxymethylcellulose (CMC)): 105 % of control
T/C (dose: 1.0 mg/kg/injection, schedule: Q01DX007 (ip), vehicle: carboxymethylcellulose (CMC)): 66 % of control

Cc1cc(N=Nc2ccc(Sc3ccc(N=Nc4ccc(O)c(C(=O)O)c4)cc3)cc2)c(N)c(N=Nc2ccc(C(=O)O)cc2)c1N
T/C (dose: 6.25 mg/kg/injection, schedule: Q01DX007 (ip), vehicle: water): 114 % of control
T/C (dose: 12.5 mg/kg/injection, schedule: Q01DX007 (ip), vehicle: water): 106 % of control
T/C (dose: 25.0 mg/kg/injection, schedule: Q01DX007 (ip), vehicle: water): 83 % of control

C[C@]12CCC(=O)C[C@H]1CC[C@@H]1[C@@H]2C(=O)C[C@@]2(C)[C@H]1CC[C@]2(C)O
T/C (dose: 5.0 mg/kg/injection, schedule: Q#A X014 (sc), vehicle: steriod suspending solution): 72 % of control
T/C (dose: 50.0 mg/kg/injection, schedule: Q#A X014 (sc), vehicle: steriod suspending solution): 78 % of control
T/C (dose: 150.0 mg/kg/injection, schedule: Q#A X014 (sc), vehicle: steriod suspending solution): 110 % of control

NC(=O)c1[nH]cnc1/N=N/N(Cc1ccccc1)Cc1ccccc1
T/C (dose: 15.5 mg/kg/injection, schedule: Q#A X014 (ip), vehicle: carboxymethylcellulose (CMC)): 49 % of control
T/C (dose: 31.0 mg/kg/injection, schedule: Q#A X014 (ip), vehicle: carboxymethylcellulose (CMC)): 59 % of control
T/C [5]: 61 % of control

NC(Cc1cccs1)C(=O)O (stereo unspecified)
T/C (dose: 175.0 mg/kg/injection, schedule: Q01DX007 (ip), vehicle: carboxymethylcellulose (CMC)): 95 % of control
T/C (dose: 250.0 mg/kg/injection, schedule: Q01DX007 (ip), vehicle: carboxymethylcellulose (CMC)): 81 % of control
T/C (dose: 1000.0 mg/kg/injection, schedule: Q01DX007 (ip), vehicle: carboxymethylcellulose (CMC)): 108 % of control
